Laboratory results: patent publication US9132171B2, “Test of insulin as a drug to reduce restenosis of vessels” (WISCONSIN ALUMNI RESEARCH FOUNDATION, priority 2012, dated 2015)

Columns and labels:
[1] = test system: IGF-2BP3; assay: mRNA expression array analysis of TGFbeta/Smad3-treated SMCs; assay type: cell-based, mouse; conditions: data not shown
Text: Cell Culture. Aortic SMCs were isolated from mouse (MOVAS) aortas. Rat aortic fibroblasts were isolated as previously described by Pagano et al., Localization of a constitutively active, phagocyte-like NADPH oxidase in rabbit aortic adventitia: enhancement by angiotensin II, Proc. Natl. Acad. Sci. USA. December 23; 94(26):14483-8 (1997), incorporated herein by reference as if set forth in its entirety, and used to visualize collagen secretion into growth media. These cells were transfected with green fluorescent protein (GFP) and SMAD3 adenoviral vectors expressing Smad3 (AdSmad3) and GFP (AdGFP), constructed as previously described in Ryer, E. et al., Arterioscler Thromb Vasc Biol. 26:780-786, 2006, incorporated herein by reference as if set forth in its entirety. Adenoviral vector expressing GFP was used as a control (AdGFP).
CTGF and IGF-2 are present in the CM derived from SMCs that overexpress Smad3 (FIGS. 2A and B respectively).

[2] = test system: left carotid artery balloon angioplasty; assay: Balloon injury model with morphometric analysis; assay type: in vivo, rat; conditions: periadventitial in Pluronic gel, 14 days after injury, relative to non-treated vessels
Protocol: In vivo studies conformed to the Guide for the Care and Use of Laboratory Animals published by the US National Institute of Health. Approval from the Institutional Animal Care and Use Committee was granted. Male Sprague-Dawley rats underwent angioplasty of the left common carotid artery. Periadventitial Insulin (1 microgram) along with CTGF (100 nanogram) suspended in 200 μL of Pluronic® gel was applied to the adventitial surface of the artery immediately after injury. Control animals were subjected to application of Pluronic® gel only. Fourteen days after injury, carotid was harvested utilizing perfusion fixation at physiological pressure of 100 mmHg.
Paraffin-embedded arteries were cut into 5 μm sections for analysis. Morphometric analysis was carried out on arteries stained with Haematoxilin and Eosin. For each animal, 10 sections were selected for analysis using digital software for Dell PC Computers (ImageJ and Photoshop V.7). The areas encompassed by the lumen surface (luminal area), […], internal elastic lamina-lumen surface (neointimal area), EEL-internal elastic lamina (medial area) and EEL length were measured. For evaluation of remodeling index, the EEL was measured and compared with that of controls. […]

[3] = test system: vessels; conditions: in vivo; cited from earlier work
[4] = test system: rat aortic fibroblasts; assay: Collagen III and I in culture medium of treated rat aortic fibroblasts (direct ELISA, Western blot); assay type: cell-based; conditions: CTGF, insulin (1 ug) or both, 72 hours
Protocol: Collagen produced by rat fibroblasts was measured using Western blotting. […] GFP (control) and Smad3-transfected SMCs were starved for 24 hours in 0.5% serum DMEM medium and then treated with TGFbetal (5 ng/ml) for 48 hours. […] Thirty micrograms of proteins from each sample were separated on 10% SDS-PAGE gels. Protein samples were transferred to a polyvinylidene fluoride (PVDF) membrane. Rabbit anti-collagen type III (1:1000) and I (1:1000) (Fitzgerald) and goat-anti Rabbit (1:5000) were used as primary and secondary antibodies respectively to confirm immunoblotting. Conditioned medium was blotted parallel to unconditioned culture medium to rule out the possibility of presence of collagen in the former. Immunoblotting was carried out to visualize collagen I and III in culture medium after treating rat fibroblasts with CTGF (0.1 μg/ml) and IGF-2 (0.3 μg/ml) for 72 hours. These experiments were replicated using insulin in place of IGF-2. ELISA was used to detect the presence of IGF-2 and CTGF in the conditioned medium using the primary antibodies from Abcam® according to manufacturer's instructions. Fitzgerald Collagen I and III primary antibodies were used to visualize changes in collagen production in the fibroblast culture medium following treatment with CTGF and IGF small interfering RNA-(siRNA) transfected conditioned medium for 72 hours. […]

[5] = test system: Smad3-expressing smooth muscle cells (SMCs); assay: MTT cell proliferation assay; assay type: cell-based, rat; conditions: insulin 1 μg/ml, TGF-beta 5 ng/ml, 96 hours
Protocol: FIG. 7 illustrates a MTT proliferation assay of Smad3-expressing smooth muscle cells (SMCs) at 96 hours after treatment with TGF-beta (5 ng/ml) or TGF beta (5 ng/ml)+Insulin (1 μg/ml).
MTT cell proliferation assay was performed to visualize the effect of insulin on SMC proliferation. Smad3-transfected rat SMCs were stimulated with TGF-beta. Cells were then treated with 1 μg of insulin and the MTT assay was performed following 96 hours of treatment.
To determine whether insulin is sufficient for decreasing TGF-beta and Smad3-stimulated SMC proliferation, an MTT proliferation assay was carried out. Insulin abolished the TGF-beta-stimulated proliferation of Smad3-expressing SMCs (FIG. 7).

[6] = test system: balloon-injured vessel; assay: Collagen I/III immunostaining of balloon-injured artery after perivascular CTGF; assay type: in vivo, rat; conditions: CTGF 80 ng in 200 microliters Pluronic gel, 14 days after carotid artery injury
Text: FIG. 5 illustrates collagen subtype induction by CTGF in vivo. Arteries were injured and treated with recombinant CTGF as described in FIG. 2. Arterial sections, harvested at 14 days post-injury, were subsequently immunostained for either Type I (COLI) or Type III collagen (COLIII). (A) Representative tissue sections from solvent-(CTRL) or CTGF-treated arteries (CTGF). Negative controls were established by staining sections without primary antibodies to collagen. 100X (B) Semi-quantification of adventitial COLI or COLIII was carried out, and the effects of CTGF on COLI or COLIII were expressed as fold induction; n=6, *p<0.05 as compared to COLIII. […] FIG. 5B depicts CTGF-mediated differential production of collagens III and I when CTGF was applied around a balloon-injured vessel.

[7] = test system: balloon-injured blood vessels; conditions: CTGF applied to balloon-injured vessels; cited from earlier work

Molecule	IGF-2BP3 increase ([1]; 6 hours treatment)	IGF-2BP3 increase ([1]; 48 hours treatment)	Increase in lumen size [2]	Neo-intimal growth [2]	Cell migration into the intima [3]	Intima cell proliferation or apoptosis [3]	Re-endothelialization in vessels [3]	Collagen III production in rat aortic fibroblasts [4]	TGF-beta-stimulated proliferation of Smad3-expressing SMCs [5]	Adventitial collagen III versus collagen I [6]	Lumen remodeling [7]
TGFbeta: TGF-beta (5 ng/ml) used to treat Smad3-transfected SMCs	2.8 folds	2.4 folds	–	–	–	–	–	–	–	–	–
insulin	–	–	29.24%	decreased neo-intimal growth	inhibit cell migration into the intima	does not decrease	increase re-endothelialization	some increase in collagen III	abolished	–	–
Connective Tissue Growth Factor (protein, UniProt P29279 27-349, looked up, soluble factor secreted by blood vessel adventitial cells) CCN family member 2: QNCSGPCRCPDEPAPRCPAGVSLVLDGCGCCRVCAKQLGELCTERDPCDPHKGLFCHFGSPANRKIGVCTAKDGAPCIFGGTVYRSGESFQSSCKYQCTCLDGAVGCMPLCSMDVRLPSPDCPFPRRVKLPGKCCEEWVCDEPKDQTVVGPALAAYRLEDTFGPDPTMIRANCLVQTTEWSACSKTCGMGISTRVTNDNASCRLEKQSRLCMVRPCEADLEENIKKGKKCIRTPKISKPIKFELSGCTSMKTYRAKFCGVCTDGRCCTPHRTTTLPVEFKCPDGEVMKKNMMFIKTCACHYNCPGDNDIFESLYYRKMYGDMA	–	–	–	–	–	–	–	some increase in collagen III	–	collagen III increased significantly more as compared to collagen I	expansively remodeled
